Data from patent publication US20250084091A1, “INHIBITORS OF SARS-COV-2” (The Texas A&M University System, priority 2021, published 2025).
Converted amounts (≈) assume the structure as drawn. Like-named read-outs stand apart in the source and are kept apart here.

How the values were obtained:
[1] = test system: HeLa-ACE2 cells; assay: cells; type: cell-based; details: Table 2, total cell count in infected plates
[2] = test system: CoV-2 in Vero cells; assay: CoV-2 Vero antiviral assay; type: cell-based, SARS-CoV-2; details: Severe acute respiratory syndrome coronavirus 2, Vero, read-out: CoV-2 Vero EC50/100
[3] = molecular target: SARS-CoV-2 main protease (Mpro) (Severe acute respiratory syndrome coronavirus 2, UniProt P0DTD1); assay: biochemical
[4] = Uninfected host cell cytotoxicity counter screen; type: cell-based; details: human
Method in brief: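 HeLa-ACE2 cells, uninfected, seeded at 400 cells/well with compounds and held 24 hours at 37° C., 5% CO2. Dead cells stained with Image-iT DEAD green, fixed in 4% paraformaldehyde, DAPI-counterstained and imaged. Data normalized to DMSO and 40 μM puromycin controls; concentration responses in triplicate.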

[5] = test system: SARS-CoV-2 (strain USA-WA1/2020); assay: microbe, parasite or virus in culture; type: cell-based
[6] = Severe acute respiratory syndrome coronavirus 2, Table 2, SARS-CoV-2 infected HeLa-ACE2 cells, read-out: CoV-2 HeLa EC50
[7] = Table 2, uninfected cells, 24 hours, read-out: Uninfected HeLa-ACE2 CC50
[8] = Severe acute respiratory syndrome coronavirus 2, HeLa-ACE2, read-out: CoV-2 HeLa EC50, Table 2, SARS-CoV-2 infected HeLa-ACE2 cells

| SMILES | EC50 [1] [nM] | EC50 [2] [µg/mL] | IC50 ([3]; Table 2, read-out: Enzyme IC50) [nM] | CC50 at 24 h [4] [nM] | EC50 [5, 6] [nM] | IC50 ([3]; Enzyme IC50, Table 2) [nM] | CC50 at 24 h [4, 7] [nM] | EC50 [5, 8] [nM] | IC50 ([3]; Table 3, select example compounds against mpro, read-out: Enzyme IC50) [nM] | EC50 ([5]; Severe acute respiratory syndrome coronavirus 2, HeLa, Table 3, read-out: CoV-2 HeLa EC50) [nM] |
| --- | --- | --- | --- | --- | --- | --- | --- | --- | --- | --- |
| Cc1cncc(C(=O)N2CCN(C3c4ccccc4CCc4ccccc43)CC2)c1 [ZS-329, (5-methyl-3-pyridyl)-[4-(2-tricyclo[9.4.0.03,8]pentadeca-1(11),3(8),4,6,12,14-hexaenyl)piperazin-1-yl]methanone] | > 9610 | 5 (≈ 12.6 µM) | 89 | 21300 | 330 | – | – | – | – | – |
| O=C(c1cncc(Br)c1)N1CCC(=C(c2ccccc2)c2ccccc2)CC1 [NZ-771, 3-bromo-5-[4-(diphenylmethylidene)piperidine-1-carbonyl]pyridine] | > 9610 | 20 (≈ 46.2 µM) | 250 | > 39800 | 940 | – | – | – | – | – |
| Cc1cncc(C(=O)N2CCN(C(c3ccccc3)c3cccc(F)c3)CC2)c1 (centres unmarked) [MKP-1225, 1-[(3-fluorophenyl)(phenyl)methyl]-4-(5-methylpyridine-3-carbonyl)piperazine] | 481 | 2.5 (≈ 6.42 µM) | 38 | > 39800 | 210 | – | – | – | – | – |
| CC(=O)Nc1cncc(C(=O)N2CCN(C3c4ccccc4CCc4ccccc43)CC2)c1 [ZS-361, N-[5-[4-(2-tricyclo[9.4.0.03,8]pentadeca-1(11),3(8),4,6,12,14-hexaenyl)piperazine-1-carbonyl]-3-pyridyl]acetamide] | 4320 | 20 (≈ 45.4 µM) | 44 | 34200 | 1180 | – | – | – | – | – |
| O=C(c1cncc(Br)c1)N1CCN(C(c2ccccc2)c2ccccc2)CC1 [AA-551, (4-benzhydrylpiperazin-1-yl)(5-bromopyridin-3-yl)methanone] | > 9610 | 2.5 (≈ 5.73 µM) | 220 | > 39800 | 820 | – | – | – | – | – |
| Cc1cncc(C(=O)N2CCC(=C3c4ccccc4CSc4ccccc43)CC2)c1 [NZ-794, [4-(6H-benzo[c][1]benzothiepin-11-ylidene)-1-piperidyl]-(5-methyl-3-pyridyl)methanone] | 345 | 2.5 (≈ 6.06 µM) | 60 | 39200 | 155 | – | – | – | – | – |
| Cc1cncc(C(=O)N2CCC(C(O)(c3ccccc3)c3ccccc3)CC2)c1 [NZ-782, [1-(5-methylpyridine-3-carbonyl)piperidin-4-yl]diphenylmethanol] | > 9610 | 5 (≈ 12.9 µM) | 230 | > 39800 | 570 | – | – | – | – | – |
| O=C(c1cncc(Br)c1)N1CCN(C2c3ccccc3COc3ccccc32)CC1 (centres unmarked) [NZ-776, (5-bromo-3-pyridyl)-[4-(6,11-dihydrobenzo[c][1]benzoxepin-11-yl)piperazin-1-yl]methanone] | > 9610 | 2.5 (≈ 5.38 µM) | 140 | > 39800 | 480 | – | – | – | – | – |
| Cc1cncc(C(=O)N2CCN(C(c3ccccc3)c3ccccc3)CC2)c1 [AA-596, (4-benzhydrylpiperazin-1-yl)(5-methylpyridin-3-yl)methanone] | > 9610 | 2.5 (≈ 6.73 µM) | 130 | > 39800 | 360 | – | – | – | – | – |
| Cc1cncc(C(=O)N2CCN(C3c4ccccc4NC(=O)c4ccccc43)CC2)c1 (centres unmarked) [ZS-355, 11-[4-(5-methylpyridine-3-carbonyl)piperazin-1-yl]-5,11-dihydrobenzo[c][1]benzazepin-6-one] | 377 | 20 (≈ 48.5 µM) | 53 | > 39800 | 223 | – | – | – | – | – |
| Cc1cncc(C(=O)N2CCC(=C(c3ccccc3)c3ccccc3)CC2)c1 [NZ-783, 3-[4-(diphenylmethylidene)piperidine-1-carbonyl]-5-methylpyridine] | > 9610 | 10 (≈ 27.1 µM) | 85 | 25600 | 570 | – | – | – | – | – |
| O=C(c1cncc(Br)c1)N1CCN(C2c3ccccc3CCc3ccccc32)CC1 [ZS-316, (5-bromo-3-pyridyl)-[4-(2-tricyclo[9.4.0.03,8]pentadeca-1(11),3(8),4,6,12,14-hexaenyl)piperazin-1-yl]methanone] | > 9610 | 2.5 (≈ 5.41 µM) | 140 | > 39800 | 700 | – | – | – | – | – |
| CNC(=O)c1cccc(C(c2ccccc2)N2C3CCC2CN(C(=O)c2cncc(C)c2)C3)c1 (centres unmarked) [AA-630, N-methyl-3-((3-(5-methylnicotinoyl)-3,8-diazabicyclo[3.2.1]octan-8-yl)(phenyl)methyl)benzamide] | 8560 | – | – | – | – | 1370 | > 39800 | 7730 | – | – |
| Cc1cncc(C(=O)N2CCN(C(c3ccccc3)c3ccccc3S(C)(=O)=O)CC2)c1 (centres unmarked) [NZ-807, (5-methyl-3-pyridyl)-[4-[(2-methylsulfonylphenyl)-phenyl-methyl]piperazin-1-yl]methanone] | > 9610 | – | 610 | > 39800 | 1990 | – | – | – | – | – |
| O=C(c1cncc2cc[nH]c12)N1CC2CCC(C1)N2C(c1ccccc1)c1ccccc1 [AA-643, (8-benzhydryl-3,8-diazabicyclo[3.2.1]octan-3-yl)(1H-pyrrolo[3,2-c]pyridin-7-yl)methanone] | 1050 | – | – | – | – | 58 | 21500 | 348 | – | – |
| O=C(c1cccnc1)N1C2CCC1CN(C(c1ccccc1)c1ccccc1)C2 [AA-597, (3-benzhydryl-3,8-diazabicyclo[3.2.1]octan-8-yl)(pyridin-3-yl)methanone] | > 9610 | – | – | – | – | 3900 | > 39800 | > 9610 | – | – |
| O=C(c1cncc2nc[nH]c12)N1CCN(C2c3ccccc3CS(=O)(=O)c3ccccc32)CC1 (centres unmarked) [NZ-810, [4-(5,5-dioxo-6,11-dihydrobenzo[c][1]benzothiepin-11-yl)piperazin-1-yl]-(1H-imidazo[4,5-c]pyridin-7-yl)methanone] | 434 | – | 75 | > 39800 | 482 | – | – | – | – | – |
| Cc1cncc(C(=O)N2CCN(C(c3cccnc3)c3cccc(F)c3)CC2)c1 (centres unmarked) [MKP-1290, 1-[(3-fluorophenyl)(pyridin-3-yl)methyl]-4-(5-methylpyridine-3-carbonyl)piperazine] | 186 | – | 96 | > 39800 | 105 | – | – | – | 96 | 105 |
| O=C1CC(C(=O)N2CCN(C(c3ccccc3)c3ccccc3)CC2)c2ccccc2N1 (centres unmarked) [ZS-325, 4-(4-benzhydrylpiperazine-1-carbonyl)-3,4-dihydro-1H-quinolin-2-one] | > 9610 | – | 1510 | > 39800 | 5680 | – | – | – | – | – |
| Cc1ccncc1C(=O)N1CCN(C(c2ccccc2)c2ccccc2)CC1 [AA-611, (4-benzhydrylpiperazin-1-yl)(4-methylpyridin-3-yl)methanone] | > 9610 | – | 2500 | > 39800 | – | – | – | > 9610 | – | – |
| O=C(c1cncc(C(F)(F)F)c1)N1CCN(C(c2ccccc2)c2cccnc2)CC1 (centres unmarked) [MKP-1195, 1-[phenyl(pyridin-3-yl)methyl]-4-[5-(trifluoromethyl)pyridine-3-carbonyl]piperazine] | > 9610 | – | 2680 | > 39800 | 8770 | – | – | – | – | – |
| O=C(c1cncc(F)c1)N1CCN(C2c3ccccc3CCc3ccccc32)CC1 [ZS-318, (5-fluoro-3-pyridyl)-[4-(2-tricyclo[9.4.0.03,8]pentadeca-1(11),3(8),4,6,12,14-hexaenyl)piperazin-1-yl]methanone] | > 9610 | – | 150 | > 39800 | 700 | – | – | – | – | – |
| O=C(c1cncc(C(F)(F)F)c1)N1CCN(C(c2ccccc2)c2ccccc2)CC1 [AA-590, (4-benzhydrylpiperazin-1-yl)(5-(trifluoromethyl)pyridin-3-yl)methanone] | > 9610 | – | 990 | > 39800 | 4900 | – | – | – | – | – |
| O=C1CC(C(=O)N2CCN(C3c4ccccc4CCc4ccccc43)CC2)c2ccccc2N1 (centres unmarked) [ZS-324, 4-[4-(2-tricyclo[9.4.0.03,8]pentadeca-1(11),3(8),4,6,12,14-hexaenyl)piperazine-1-carbonyl]-3,4-dihydro-1H-quinolin-2-one] | > 9610 | – | 540 | 21100 | 2790 | – | – | – | – | – |
| O=C(c1cncc(Br)c1)N1CCC(=C2c3ccccc3CS(=O)(=O)c3ccccc32)CC1 [NZ-802, (5-bromo-3-pyridyl)-[4-(5,5-dioxo-6H-benzo[c][1]benzothiepin-11-ylidene)-1-piperidyl]methanone] | 41 | – | 67 | > 39800 | 60 | – | – | – | – | – |
| Cc1cncc(C(=O)N2CCN(C(c3ccccc3)c3cccc(C(F)(F)F)c3)CC2)c1 (centres unmarked) [MKP-1276, 1-(5-methylpyridine-3-carbonyl)-4-{phenyl[3-(trifluoromethyl)phenyl]methyl} piperazine] | 3410 | – | 211 | 22900 | 637 | – | – | – | – | – |
| COc1cncc(C(=O)N2CCN(C(c3ccccc3)c3cccnc3)CC2)c1 (centres unmarked) [MKP-1194, 1-(5-methoxypyridine-3-carbonyl)-4-[phenyl(pyridin-3-yl)methyl]piperazine] | > 9610 | – | 1100 | > 39800 | 2120 | – | – | – | – | – |
